Residual activity and inhibition data for 1 compound are collected here from ChEMBL document CHEMBL4507281, “Data for DCP probe BI-4394” (2021).

What all share (conditions): Compound concentration 10.0 uM
Assay [1] addresses T1, Inhibitor of nuclear factor kappa-B kinase subunit beta (Homo sapiens) (UniProt O14920).
T1 sequence (whole entry): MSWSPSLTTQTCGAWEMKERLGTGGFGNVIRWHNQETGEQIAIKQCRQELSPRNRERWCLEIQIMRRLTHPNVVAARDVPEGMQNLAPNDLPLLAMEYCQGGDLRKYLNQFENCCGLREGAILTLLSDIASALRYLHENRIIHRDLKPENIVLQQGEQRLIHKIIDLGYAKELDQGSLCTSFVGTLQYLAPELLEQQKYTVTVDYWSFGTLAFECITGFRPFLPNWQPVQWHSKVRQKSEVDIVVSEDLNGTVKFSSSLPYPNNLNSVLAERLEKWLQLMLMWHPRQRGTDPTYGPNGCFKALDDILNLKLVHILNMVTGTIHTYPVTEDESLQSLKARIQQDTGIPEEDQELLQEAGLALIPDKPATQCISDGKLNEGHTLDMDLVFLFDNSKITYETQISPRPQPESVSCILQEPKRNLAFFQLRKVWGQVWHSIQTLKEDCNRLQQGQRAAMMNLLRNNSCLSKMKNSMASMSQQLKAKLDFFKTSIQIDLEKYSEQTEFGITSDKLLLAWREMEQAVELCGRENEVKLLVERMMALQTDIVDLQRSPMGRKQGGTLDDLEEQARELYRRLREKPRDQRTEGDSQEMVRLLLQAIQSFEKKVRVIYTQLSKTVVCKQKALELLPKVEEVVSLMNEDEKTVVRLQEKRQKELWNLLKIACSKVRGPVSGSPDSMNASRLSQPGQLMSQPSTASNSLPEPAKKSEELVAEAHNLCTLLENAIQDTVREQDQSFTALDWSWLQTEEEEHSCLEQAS

Assay [2] has as its target T2, Serine/threonine-protein kinase Chk1 (Homo sapiens) (UniProt O14757).
T2 sequence (whole entry): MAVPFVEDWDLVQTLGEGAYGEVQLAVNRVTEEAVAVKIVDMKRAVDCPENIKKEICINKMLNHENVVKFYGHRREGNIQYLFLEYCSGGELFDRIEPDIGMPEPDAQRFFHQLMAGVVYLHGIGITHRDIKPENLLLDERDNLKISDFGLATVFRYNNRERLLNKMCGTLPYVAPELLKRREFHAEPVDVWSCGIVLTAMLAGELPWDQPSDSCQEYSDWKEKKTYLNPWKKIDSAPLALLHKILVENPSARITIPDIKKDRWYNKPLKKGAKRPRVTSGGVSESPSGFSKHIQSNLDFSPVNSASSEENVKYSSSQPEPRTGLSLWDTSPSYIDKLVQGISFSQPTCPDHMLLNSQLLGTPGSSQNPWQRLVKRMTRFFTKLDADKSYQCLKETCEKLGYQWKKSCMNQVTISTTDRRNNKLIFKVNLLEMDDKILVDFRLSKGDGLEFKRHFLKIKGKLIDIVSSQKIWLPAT

The target of assay [3] is Alpha-2A adrenergic receptor (Homo sapiens) (UniProt P08913).
Chain of Alpha-2A adrenergic receptor (Homo sapiens) (P08913 whole entry): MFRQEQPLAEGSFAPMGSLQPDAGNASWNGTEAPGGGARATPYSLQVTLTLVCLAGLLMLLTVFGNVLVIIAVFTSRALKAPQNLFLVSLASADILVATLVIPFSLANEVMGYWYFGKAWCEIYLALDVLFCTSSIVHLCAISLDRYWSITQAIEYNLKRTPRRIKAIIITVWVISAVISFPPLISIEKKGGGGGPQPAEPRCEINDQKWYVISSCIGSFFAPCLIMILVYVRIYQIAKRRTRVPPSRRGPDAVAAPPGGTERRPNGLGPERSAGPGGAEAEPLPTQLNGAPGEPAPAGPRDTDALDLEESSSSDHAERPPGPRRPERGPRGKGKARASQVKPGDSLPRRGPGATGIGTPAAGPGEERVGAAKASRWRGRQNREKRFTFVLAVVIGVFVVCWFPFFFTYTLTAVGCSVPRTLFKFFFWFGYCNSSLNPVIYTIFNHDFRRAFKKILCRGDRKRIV
The target in assay [4] is T3, Tyrosine-protein kinase ZAP-70 (Homo sapiens) (UniProt P43403).
T3 sequence (whole entry): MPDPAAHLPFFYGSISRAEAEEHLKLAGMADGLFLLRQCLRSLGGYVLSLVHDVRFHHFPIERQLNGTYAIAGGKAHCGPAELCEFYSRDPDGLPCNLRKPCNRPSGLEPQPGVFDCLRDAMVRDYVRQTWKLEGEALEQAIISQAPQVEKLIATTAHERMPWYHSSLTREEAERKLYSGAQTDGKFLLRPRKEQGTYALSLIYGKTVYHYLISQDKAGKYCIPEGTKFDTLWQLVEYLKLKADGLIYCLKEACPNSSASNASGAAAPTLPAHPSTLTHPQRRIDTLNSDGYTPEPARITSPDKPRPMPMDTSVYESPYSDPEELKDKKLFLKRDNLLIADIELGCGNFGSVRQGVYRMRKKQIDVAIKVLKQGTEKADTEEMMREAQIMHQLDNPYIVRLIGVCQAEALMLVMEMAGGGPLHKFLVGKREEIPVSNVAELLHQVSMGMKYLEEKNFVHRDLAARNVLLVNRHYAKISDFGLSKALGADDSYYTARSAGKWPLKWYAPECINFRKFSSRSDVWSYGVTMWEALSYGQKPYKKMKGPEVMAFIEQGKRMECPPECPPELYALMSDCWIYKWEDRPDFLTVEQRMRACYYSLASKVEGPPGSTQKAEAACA

The target of assay [5] is T4, Tyrosine-protein kinase JAK3 (Homo sapiens) (UniProt P52333).
T4 sequence (whole entry): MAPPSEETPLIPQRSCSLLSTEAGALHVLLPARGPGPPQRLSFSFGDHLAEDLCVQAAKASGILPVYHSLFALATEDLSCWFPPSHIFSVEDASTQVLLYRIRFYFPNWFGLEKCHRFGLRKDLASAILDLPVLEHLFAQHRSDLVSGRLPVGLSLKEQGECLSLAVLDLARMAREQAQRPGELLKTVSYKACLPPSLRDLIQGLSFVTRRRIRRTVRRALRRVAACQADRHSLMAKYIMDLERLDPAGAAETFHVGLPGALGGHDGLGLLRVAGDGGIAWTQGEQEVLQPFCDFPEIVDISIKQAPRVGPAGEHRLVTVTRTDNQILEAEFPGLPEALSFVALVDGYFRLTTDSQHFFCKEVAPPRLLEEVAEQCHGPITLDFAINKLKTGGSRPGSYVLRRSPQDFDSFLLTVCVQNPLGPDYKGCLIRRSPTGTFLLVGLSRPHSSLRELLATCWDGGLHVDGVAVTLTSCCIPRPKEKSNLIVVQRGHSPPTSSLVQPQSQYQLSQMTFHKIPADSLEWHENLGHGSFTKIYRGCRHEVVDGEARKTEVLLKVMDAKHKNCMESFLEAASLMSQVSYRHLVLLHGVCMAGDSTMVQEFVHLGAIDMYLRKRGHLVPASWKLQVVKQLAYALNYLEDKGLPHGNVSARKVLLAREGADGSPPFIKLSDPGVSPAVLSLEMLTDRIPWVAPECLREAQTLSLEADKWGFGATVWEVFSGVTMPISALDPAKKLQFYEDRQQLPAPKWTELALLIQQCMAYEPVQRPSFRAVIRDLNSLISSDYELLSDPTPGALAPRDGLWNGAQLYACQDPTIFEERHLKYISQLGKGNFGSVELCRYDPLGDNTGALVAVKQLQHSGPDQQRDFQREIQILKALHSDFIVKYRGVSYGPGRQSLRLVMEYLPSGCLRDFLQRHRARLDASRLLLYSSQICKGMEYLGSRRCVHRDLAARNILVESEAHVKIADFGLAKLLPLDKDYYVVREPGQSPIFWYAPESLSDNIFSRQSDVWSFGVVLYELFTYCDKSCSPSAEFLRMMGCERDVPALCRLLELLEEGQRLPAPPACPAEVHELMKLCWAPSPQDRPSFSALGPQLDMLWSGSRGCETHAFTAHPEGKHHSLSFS

By residual activity is commonly meant what remains of the control signal, in per cent. One may read the inhibition as the relative decrease from the control value, in per cent. On to `CCOC(=O)c1cc2cc(-c3cc(C(=O)NCc4ccc(C(=O)O)cc4)nn3C)ccc2[nH]1` [BI 4394], for which the residual activity is 48% in assay [1], 94% in assay [2], 100% in assay [4] and 44% in assay [5]. The inhibition in assay [3] was 12.3%.
